From US6410587B1, “Compounds and therapies for the prevention of vascular and non-vascular pathologies” (NeoRx Corporation, priority 1997, dated 2002)

Key:
[1] = system: smooth muscle α-actin (SM-α-actin); test: SM-alpha-actin in vessel wall (quantitative immunofluorescence); assay type: in vivo, mouse; conditions: 87 days treatment
Protocol: (§1) SM-α-actin and osteopontin were measured by quantitative immunofluorescence microscopy using specific primary antibodies A-6125 (Sigma) and MBP111Bio (NIH Developmental Studies Hybridoma Bank), respectively.

osteopontin = test: Osteopontin in vessel wall (quantitative immunofluorescence); assay type: in vivo, mouse; conditions: 87 days treatment
Protocol: as §1

[2] = Serum lipid and lipoprotein profile of apoE knockout mice; assay type: in vivo, mouse
Protocol: The effect of each treatment on the lipid profile of each group of mice was determined by measuring the cholesterol and triglyceride. Blood from a terminal bleed was collected in a polypropylene tube, allowed to clot at room temperature for 2 hours and then spun (1,000×g; 5 minutes). The serum supernatant was aliquoted and stored at −20° C. until assayed. Total cholesterol and total triglycerides were determined for each mouse using the cholesterol oxidase and glycerol kinase UV end-point enzymatic methods respectively (Sigma Diagnostics).

apoE knockout mice = test: Lipid lesion development in aortic sinus of apoE knockout mice (Oil Red O)
Protocol: To determine the efficacy of combination therapy, and to provide evidence for synergism between aspirin and fish oil, 8-week-old female apoE knockout mice were fed aspirin or fish oil, or both, to assess the cardioprotective effects of modulating different components of the TGF-beta pathway.
Group A mice (n=10) were sacrificed at day 0. Group B mice (n=10) were fed normal chow. […] Group D mice (n=10) were fed chow containing 33 mg/kg/day fish oil (200 μg Pulse cod liver oil/g food, Seven Seas Ltd., which contains 0.9 g eicosapentaenoic acid (EPA), and 0.3 g docosahexaenoic acid (DHA)) and 3 mg/kg/day aspirin dissolved in water. Group E mice (n=10) were fed chow containing 33 mg/kg/day fish oil. Group F mice (n=10) were fed chow containing Zocor (simvastatin; Zocor tablets, Merck, Sharpe & Dohme) at 400 μg/kg/day (2 μg/g food).
Groups B-F were fed these regimens for 87 days. All mice were weighed daily for the first week and weekly thereafter. Food and water consumption over a 24 hour period were measured daily for the first 7 days and weekly thereafter.
After 87 days, mice in groups B-F were fasted overnight and then sacrificed. Serum, heart, lungs and aorta samples were collected at the time of sacrifice. The heart, lungs and aorta were removed from each mouse and rinsed in PBS, dabbed dry on tissue and embedded in Cryo-M-bed embedding medium (Bright Instruments, Huntington, U.K.) before snap freezing in liquid nitrogen. Frozen sections (4 μm thickness) of the aortic sinus region were prepared from the heart/lung/aorta blocks according to the sectioning strategy of Paigen et al. (Arteriosclerosis, 10, 316 (1990)). Sections on 5% gelatin-coated slides were stained for neutral lipid by the Oil Red O technique and counter-stained with fast green (Grainger et al., Nature Med., 1, 1067 (1995)).
The development of lipid-filled vascular lesions was determined by the quantitation of oil red O staining for neutral lipid deposited in the aortic sinus region. The area of lipid accumulation was measured using a calibrated microscope eye-piece, such that lipid droplets<50 μm^2 were ignored and contiguous regions of lipid staining>500 μm in area were classified as lesions.

[3] = Simvastatin for 16 weeks in patients with high cholesterol; assay type: in vivo, human; conditions: six time points
Protocol: Twenty six patients with high cholesterol were administered simnvastatin for 16 weeks. Blood was collected at six times points during the 16 weeks and analyzed for TGF-beta levels.

TGF-beta = TGF-beta in vessel wall of apoE knockout mice (quantitative immunofluorescence); assay type: in vivo, mouse; conditions: 87 days treatment
Protocol: No. 08/478,936, filed Jun. 7, 1995, which is incorporated by reference herein. […] Sigma) and fixed in ice-cold acetone for 90 seconds, air-dried and stored at -20° C. until assayed. […] R&D Systems), see Mosedale et al., Histochem. Cytochem., 44, 1043 (1996), the disclosure of which is incorporated by reference herein. Active TGF-beta wag measured by quantitative immunofluorescence microscopy using the recombinant extracellular domain of the type II TGF-beta receptor […]) labeled with fluorescein.

[4] = single measurement on pooled blood of the group

CCC(C)(C)C(=O)O[C@H]1C[C@@H](C)C=C2C=C[C@H](C)[C@H](CC[C@@H]3C[C@@H](O)CC(=O)O3)[C@H]21 [Zocor, simvastatin]
SMα Actin [1]: 114 ± 19
Osteopontin (osteopontin): 73 ± 8
Total cholesterol ([2]; serum, 87 days treatment): 224 ± 29 mg/dL
Total triglyceride ([2]; serum, 87 days treatment): 266 ± 14 mg/dL
HDL-cholesterol [2, 4]: 35 mg/dL
LDL-cholesterol [2, 4]: 54 mg/dL
VLDL-cholesterol [2, 4]: 158 mg/dL
change in LDL-cholesterol vs control mice ([2]; three months): −41%
change in VLDL-cholesterol vs control mice ([2]; three months): −14%
change in total plasma cholesterol vs control mice ([2]; three months): −27%
reduction in total plasma triglyceride concentration ([2]; three months): −12%
change in lesion development / lesion formation vs untreated mice (apoE knockout mice; 3 month treatment): −7%
Number of Lesions (apoE knockout mice; 87 days treatment): 8.1 ± 0.4
Lesion Area (μm^2 staining) (apoE knockout mice; 87 days treatment, per mouse, n=10): 25,777 ± 1368 μm^2
effect on TGF-beta levels [3]: no effect
Active + Latent TGF-beta in Vessel Wall (TGF-beta): 44 ± 5
Active TGF-beta in Vessel Wall (TGF-beta): 20 ± 3
